Compound in one test: NC(=O)CCCCC1CCSS1 [lipoamide]
Briefly: thermal stability z-score vs DMSO; higher = more thermally stabilized by treatment. To be noted: HeLa, lipoamide concentration 100 µM. The method, then:
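Cellular thermal proteome profiling in HeLa cells. Cells were treated with 100 µM lipoamide for 1 h, with or without 1 mM arsenate for a further 1 h, then heated to ten temperatures (37-66.3 °C), and soluble protein was quantified by TMT mass spectrometry relative to 0.1% DMSO controls. The thermal stability score (sum of log2 fold changes minus the abundance score) was transformed to a z-score; mean of n = 3 experiments.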

Compound in the next test: O=[As]([O-])(O)O.[K+] [potassium arsenate]
The description is as above. To be noted: HeLa; arsenate concentration 1 mM. As for the experimental part:
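Cellular thermal proteome profiling in HeLa cells treated with 1 mM arsenate for 1 h (DMSO pretreatment), heated to ten temperatures (37-66.3 °C). Soluble protein was quantified by TMT mass spectrometry relative to DMSO controls; the thermal stability score was transformed to a z-score; mean of n = 3 experiments.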

[1] abbreviates: arsenate co-treatment: 1 mM arsenate 1 h.
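Note: each temperature applied for 3 min, abundance score taken as mean log2 fold change at the two lowest temperatures, z-score obtained by mean subtraction and division by SD.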

UniProt O14980, sequence (O14980 whole entry): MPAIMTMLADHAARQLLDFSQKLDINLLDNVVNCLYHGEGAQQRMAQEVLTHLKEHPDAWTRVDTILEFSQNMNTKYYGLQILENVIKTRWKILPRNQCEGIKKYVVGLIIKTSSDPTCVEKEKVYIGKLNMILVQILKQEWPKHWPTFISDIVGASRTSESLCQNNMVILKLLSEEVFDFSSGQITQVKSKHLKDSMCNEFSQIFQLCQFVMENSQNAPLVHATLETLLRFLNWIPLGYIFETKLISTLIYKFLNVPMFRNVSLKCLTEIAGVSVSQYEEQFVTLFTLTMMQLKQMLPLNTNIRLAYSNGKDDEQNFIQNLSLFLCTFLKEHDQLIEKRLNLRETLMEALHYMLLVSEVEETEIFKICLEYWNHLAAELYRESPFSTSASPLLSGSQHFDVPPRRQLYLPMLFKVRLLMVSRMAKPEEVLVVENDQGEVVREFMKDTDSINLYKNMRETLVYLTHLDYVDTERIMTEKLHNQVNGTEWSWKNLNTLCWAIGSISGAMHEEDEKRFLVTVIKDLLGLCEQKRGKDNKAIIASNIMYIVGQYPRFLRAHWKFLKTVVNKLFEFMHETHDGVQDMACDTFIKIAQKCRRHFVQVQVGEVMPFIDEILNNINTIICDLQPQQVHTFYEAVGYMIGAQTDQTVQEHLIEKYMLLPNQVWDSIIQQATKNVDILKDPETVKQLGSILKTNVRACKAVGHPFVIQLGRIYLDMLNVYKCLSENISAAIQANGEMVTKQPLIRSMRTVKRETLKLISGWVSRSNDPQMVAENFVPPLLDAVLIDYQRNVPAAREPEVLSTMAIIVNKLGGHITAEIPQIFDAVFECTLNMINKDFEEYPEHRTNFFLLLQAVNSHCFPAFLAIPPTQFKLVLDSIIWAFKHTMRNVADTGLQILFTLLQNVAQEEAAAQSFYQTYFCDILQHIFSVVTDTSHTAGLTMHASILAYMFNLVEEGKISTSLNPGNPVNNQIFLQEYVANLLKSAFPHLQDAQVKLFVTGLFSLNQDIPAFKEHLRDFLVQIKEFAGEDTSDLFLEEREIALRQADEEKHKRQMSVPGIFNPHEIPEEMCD
UniProt Q8NI22, sequence (Q8NI22 whole entry): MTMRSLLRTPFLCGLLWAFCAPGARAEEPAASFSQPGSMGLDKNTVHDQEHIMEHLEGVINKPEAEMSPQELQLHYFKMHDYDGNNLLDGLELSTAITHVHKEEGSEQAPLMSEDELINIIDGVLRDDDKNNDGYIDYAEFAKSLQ
UniProt Q9NXR7, sequence (Q9NXR7 whole entry): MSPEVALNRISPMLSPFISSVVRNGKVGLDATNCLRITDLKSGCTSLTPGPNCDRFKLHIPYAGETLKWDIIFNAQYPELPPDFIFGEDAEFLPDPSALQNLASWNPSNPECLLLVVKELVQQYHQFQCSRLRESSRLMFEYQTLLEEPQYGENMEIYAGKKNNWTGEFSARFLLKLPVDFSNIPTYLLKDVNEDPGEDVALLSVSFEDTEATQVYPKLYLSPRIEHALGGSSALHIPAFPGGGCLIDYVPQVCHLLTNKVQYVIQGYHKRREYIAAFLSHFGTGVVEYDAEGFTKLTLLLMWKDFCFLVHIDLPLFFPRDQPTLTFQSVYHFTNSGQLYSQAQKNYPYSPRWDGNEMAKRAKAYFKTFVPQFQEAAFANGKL
UniProt Q04917, sequence (Q04917 whole entry): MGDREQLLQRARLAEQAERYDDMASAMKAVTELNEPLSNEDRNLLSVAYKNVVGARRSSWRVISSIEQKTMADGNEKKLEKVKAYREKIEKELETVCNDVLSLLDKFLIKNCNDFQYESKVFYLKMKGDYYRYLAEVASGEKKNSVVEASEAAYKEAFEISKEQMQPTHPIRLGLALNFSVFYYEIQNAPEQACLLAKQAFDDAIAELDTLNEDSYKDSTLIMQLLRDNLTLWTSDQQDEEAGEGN
UniProt O43399, sequence (O43399 whole entry): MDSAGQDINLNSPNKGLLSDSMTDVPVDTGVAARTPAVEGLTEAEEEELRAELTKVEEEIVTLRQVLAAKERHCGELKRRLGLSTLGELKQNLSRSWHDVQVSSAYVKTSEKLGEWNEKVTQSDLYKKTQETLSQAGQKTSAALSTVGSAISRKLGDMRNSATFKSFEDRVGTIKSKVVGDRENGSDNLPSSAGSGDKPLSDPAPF
UniProt Q70UQ0, sequence (Q70UQ0 whole entry): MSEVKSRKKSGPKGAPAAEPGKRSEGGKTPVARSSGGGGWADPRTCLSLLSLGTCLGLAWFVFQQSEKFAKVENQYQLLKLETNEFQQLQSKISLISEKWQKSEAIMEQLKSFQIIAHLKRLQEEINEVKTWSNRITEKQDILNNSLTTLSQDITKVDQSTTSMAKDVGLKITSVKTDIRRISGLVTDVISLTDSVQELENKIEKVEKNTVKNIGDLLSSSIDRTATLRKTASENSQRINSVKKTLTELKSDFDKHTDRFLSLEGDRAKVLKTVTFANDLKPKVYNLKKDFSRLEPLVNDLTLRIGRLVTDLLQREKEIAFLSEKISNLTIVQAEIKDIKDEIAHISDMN
UniProt O60563, sequence (O60563 whole entry): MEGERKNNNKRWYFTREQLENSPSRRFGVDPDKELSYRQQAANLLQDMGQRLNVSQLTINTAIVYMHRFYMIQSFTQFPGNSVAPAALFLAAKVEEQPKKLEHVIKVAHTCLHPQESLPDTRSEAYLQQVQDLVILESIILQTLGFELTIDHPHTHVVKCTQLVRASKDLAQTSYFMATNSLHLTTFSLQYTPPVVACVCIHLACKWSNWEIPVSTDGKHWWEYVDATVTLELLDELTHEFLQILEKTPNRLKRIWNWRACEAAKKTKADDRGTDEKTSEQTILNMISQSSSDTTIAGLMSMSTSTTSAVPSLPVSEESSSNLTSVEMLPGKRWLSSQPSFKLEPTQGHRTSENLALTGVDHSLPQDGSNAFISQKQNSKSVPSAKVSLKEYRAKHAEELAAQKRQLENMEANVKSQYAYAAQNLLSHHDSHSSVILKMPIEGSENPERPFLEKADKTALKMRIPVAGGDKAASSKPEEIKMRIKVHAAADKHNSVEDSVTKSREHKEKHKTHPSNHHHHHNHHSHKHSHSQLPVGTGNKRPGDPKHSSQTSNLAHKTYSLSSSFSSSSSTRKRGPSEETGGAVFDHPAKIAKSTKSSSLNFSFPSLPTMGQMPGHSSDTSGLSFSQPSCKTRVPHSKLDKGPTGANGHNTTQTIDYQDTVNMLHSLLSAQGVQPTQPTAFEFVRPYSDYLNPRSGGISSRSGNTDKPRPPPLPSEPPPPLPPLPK
UniProt Q9NR28, sequence (Q9NR28 whole entry): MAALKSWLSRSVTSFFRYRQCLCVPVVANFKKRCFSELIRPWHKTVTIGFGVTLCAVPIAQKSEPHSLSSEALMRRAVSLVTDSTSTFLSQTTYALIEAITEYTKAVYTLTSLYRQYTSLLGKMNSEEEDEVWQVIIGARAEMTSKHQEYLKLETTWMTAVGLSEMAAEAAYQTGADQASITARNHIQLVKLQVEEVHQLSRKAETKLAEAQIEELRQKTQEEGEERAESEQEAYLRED
UniProt Q9H4H8, sequence (Q9H4H8 whole entry): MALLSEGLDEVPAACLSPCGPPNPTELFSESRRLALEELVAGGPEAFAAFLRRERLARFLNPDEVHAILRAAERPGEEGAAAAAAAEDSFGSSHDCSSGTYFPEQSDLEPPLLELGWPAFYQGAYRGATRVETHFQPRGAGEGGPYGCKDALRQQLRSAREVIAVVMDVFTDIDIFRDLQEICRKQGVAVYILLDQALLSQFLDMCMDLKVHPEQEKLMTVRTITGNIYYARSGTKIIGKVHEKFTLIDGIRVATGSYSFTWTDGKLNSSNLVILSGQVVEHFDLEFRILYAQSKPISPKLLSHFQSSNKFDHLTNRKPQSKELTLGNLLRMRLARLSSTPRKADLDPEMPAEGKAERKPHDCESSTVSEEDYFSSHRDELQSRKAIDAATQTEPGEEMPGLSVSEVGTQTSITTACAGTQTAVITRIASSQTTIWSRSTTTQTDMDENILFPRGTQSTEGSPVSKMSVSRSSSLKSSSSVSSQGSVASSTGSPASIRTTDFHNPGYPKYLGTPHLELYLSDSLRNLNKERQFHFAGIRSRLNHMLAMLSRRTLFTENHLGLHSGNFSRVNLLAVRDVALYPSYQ
UniProt P52735, sequence (P52735 whole entry): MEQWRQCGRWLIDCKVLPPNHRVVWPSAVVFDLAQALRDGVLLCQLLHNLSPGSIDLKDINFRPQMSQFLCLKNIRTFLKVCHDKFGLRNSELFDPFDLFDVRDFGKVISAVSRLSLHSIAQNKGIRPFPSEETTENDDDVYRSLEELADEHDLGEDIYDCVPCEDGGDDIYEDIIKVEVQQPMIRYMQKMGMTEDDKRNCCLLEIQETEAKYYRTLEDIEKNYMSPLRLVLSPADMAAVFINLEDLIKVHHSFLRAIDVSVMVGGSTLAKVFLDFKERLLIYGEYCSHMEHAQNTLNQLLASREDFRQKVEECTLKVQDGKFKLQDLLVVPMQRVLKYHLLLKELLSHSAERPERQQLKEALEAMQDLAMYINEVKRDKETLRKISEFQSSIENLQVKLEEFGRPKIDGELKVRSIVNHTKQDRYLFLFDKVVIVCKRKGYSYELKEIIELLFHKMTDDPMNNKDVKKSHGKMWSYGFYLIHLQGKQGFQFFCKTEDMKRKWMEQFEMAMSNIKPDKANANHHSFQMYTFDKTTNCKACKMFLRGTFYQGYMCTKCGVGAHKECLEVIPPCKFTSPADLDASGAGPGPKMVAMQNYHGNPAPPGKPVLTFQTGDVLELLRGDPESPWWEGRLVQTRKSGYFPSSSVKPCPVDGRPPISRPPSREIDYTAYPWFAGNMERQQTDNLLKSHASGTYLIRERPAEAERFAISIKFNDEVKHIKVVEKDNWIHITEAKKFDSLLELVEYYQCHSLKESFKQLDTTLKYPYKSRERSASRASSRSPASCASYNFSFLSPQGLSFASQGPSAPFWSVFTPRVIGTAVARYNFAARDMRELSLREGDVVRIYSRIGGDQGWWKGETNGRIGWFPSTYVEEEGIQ
UniProt Q96EX1, sequence (Q96EX1 whole entry): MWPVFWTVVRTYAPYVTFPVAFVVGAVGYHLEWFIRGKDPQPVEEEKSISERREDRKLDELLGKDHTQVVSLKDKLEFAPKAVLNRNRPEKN

For DIABLO (UniProt Q9NR28), the thermal stability z-score with lipoamide (setting [1]) worked out at 0.979; in the test with lipoamide (arsenate co-treatment: none), 0.495; with potassium arsenate, 0.154.

With PIK3C3 (UniProt Q8NEB9), the figures for the thermal stability z-score with lipoamide (setting [1]), with lipoamide (arsenate co-treatment: none) and with potassium arsenate were -0.102, -0.206 and -0.484, respectively.

As for TPD52L2 (UniProt O43399), the thermal stability z-score amounted to 1.01 with lipoamide (setting [1]), 1.19 with lipoamide (arsenate co-treatment: none) and 0.621 in the test with potassium arsenate.

Consider SNX9 (UniProt Q9Y5X1), for which the thermal stability z-score in the test with lipoamide (setting [1]) is -0.0697; with lipoamide (arsenate co-treatment: none), -0.0413; with potassium arsenate it was 0.276.

As to SSH3 (UniProt Q8TE77), the thermal stability z-score with lipoamide (setting [1]) was 0.153; with lipoamide (arsenate co-treatment: none), -0.0576; in the test with potassium arsenate it was -0.0687.

PLXNA2 (UniProt O75051): the values for the thermal stability z-score with lipoamide (setting [1]), in the test with lipoamide (arsenate co-treatment: none) and with potassium arsenate were 0.937, 1.3 and -0.219, respectively.

For DAZAP1 (UniProt Q96EP5), the thermal stability z-score is 1.15 in the test with lipoamide (setting [1]), 1.07 with lipoamide (arsenate co-treatment: none) and 0.243 with potassium arsenate.

As to INPP5A (UniProt Q14642), the values for the thermal stability z-score in the test with lipoamide (setting [1]), with lipoamide (arsenate co-treatment: none) and with potassium arsenate were -1.28, -0.144 and 0.656, respectively.

As to MATR3 (UniProt P43243), the figures for the thermal stability z-score in the test with lipoamide (setting [1]), with lipoamide (arsenate co-treatment: none) and with potassium arsenate were 2.1, 0.607 and -1.69, respectively.

Consider VAV2 (UniProt P52735), for which the thermal stability z-score with lipoamide (setting [1]) came out at 0.0635; with lipoamide (arsenate co-treatment: none), 0.172; with potassium arsenate it was 0.835.

Consider MCFD2 (UniProt Q8NI22), for which the thermal stability z-score with lipoamide (setting [1]) is -0.221; in the test with lipoamide (arsenate co-treatment: none) it was -0.109; with potassium arsenate, -0.565.

As for FAM83D (UniProt Q9H4H8), the thermal stability z-score with lipoamide (setting [1]) was -0.472; in the test with lipoamide (arsenate co-treatment: none), -0.432; in the test with potassium arsenate, 0.641.

As for CCNT1 (UniProt O60563), the thermal stability z-score in the test with lipoamide (setting [1]) turned out to be 0.149; with lipoamide (arsenate co-treatment: none), 0.145; with potassium arsenate, 0.178.

As for SYNCRIP (UniProt O60506), the results for the thermal stability z-score with lipoamide (setting [1]), with lipoamide (arsenate co-treatment: none) and with potassium arsenate were 0.0582, 0.179 and -0.00709, respectively.

With IKBIP (UniProt Q70UQ0), the thermal stability z-score with lipoamide (setting [1]) was -3.01; with lipoamide (arsenate co-treatment: none), -2.3; with potassium arsenate it was -0.0459.

As to XPO1 (UniProt O14980), the thermal stability z-score with lipoamide (setting [1]) was 0.211; in the test with lipoamide (arsenate co-treatment: none), 0.4; with potassium arsenate it was 1.4.

Regarding UBXN1 (UniProt Q04323), the thermal stability z-score with lipoamide (setting [1]) is 0.155; in the test with lipoamide (arsenate co-treatment: none) it was 0.25; with potassium arsenate it was -0.0349.

As to ARHGAP10 (UniProt A1A4S6), the thermal stability z-score with lipoamide (setting [1]) came out at 0.133; with lipoamide (arsenate co-treatment: none) it was 0.268; in the test with potassium arsenate, 0.226.

Take CRIM1 (UniProt Q9NZV1): the thermal stability z-score in the test with lipoamide (setting [1]) was -2.84; in the test with lipoamide (arsenate co-treatment: none), -1.95; in the test with potassium arsenate, -2.04.

Turning to HYPK (UniProt Q9NX55), the figures for the thermal stability z-score in the test with lipoamide (setting [1]), with lipoamide (arsenate co-treatment: none) and with potassium arsenate were 0.716, 0.592 and -0.114, respectively.

Turning to MGME1 (UniProt Q9BQP7), the thermal stability z-score is 0.201 with lipoamide (setting [1]), 0.117 in the test with lipoamide (arsenate co-treatment: none) and -0.00686 with potassium arsenate.

For the target AGTRAP (UniProt Q6RW13), the thermal stability z-score with lipoamide (setting [1]) was found to be 0.719; with lipoamide (arsenate co-treatment: none), 0.743; in the test with potassium arsenate, 1.66.

Take TM9SF3 (UniProt Q9HD45): the thermal stability z-score with lipoamide (setting [1]) is -0.451; with lipoamide (arsenate co-treatment: none), -0.0174; with potassium arsenate it was 0.511.

In the case of C15ORF38|ARPIN, the thermal stability z-score was -0.167 with lipoamide (setting [1]), 0.382 in the test with lipoamide (arsenate co-treatment: none) and 0.206 in the test with potassium arsenate.

Take YWHAH (UniProt Q04917): the thermal stability z-score in the test with lipoamide (setting [1]) was found to be 0.0489; with lipoamide (arsenate co-treatment: none), 0.303; with potassium arsenate it was 0.138.

As for BRE (UniProt Q9NXR7), the thermal stability z-score is 0.462 in the test with lipoamide (setting [1]), -0.15 in the test with lipoamide (arsenate co-treatment: none) and 0.319 with potassium arsenate.

For the target SMIM12 (UniProt Q96EX1), the thermal stability z-score is -0.371 in the test with lipoamide (setting [1]), 0.35 in the test with lipoamide (arsenate co-treatment: none) and 0.0454 in the test with potassium arsenate.

In the case of TJAP1 (UniProt Q5JTD0), the results for the thermal stability z-score in the test with lipoamide (setting [1]), with lipoamide (arsenate co-treatment: none) and with potassium arsenate were -1.54, -0.576 and -0.0307, respectively.
